Measurements published in PubChem BioAssay AID602236 (The Scripps Research Institute Molecular Screening Center, 2012).
The source made the active and inactive calls.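 How the source made its calls: active means IC50 of 10 µM or lower; inactive means IC50 above 10 µM.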

Tested on: HEK-293 Gal4-VP16 UAS luciferase reporter, luminescence
Assay: GAL4-VP16 reporter repression curves – cell-based, luminescence, high throughput, SRC1 series, counter-screen for SRC1 inhibitor project, dose response (AID 602236);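 further: inhibitor potency where hits lower luciferase light from Gal4-VP16 transactivation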

Compound | IC50
COc1cc(/C=C2\CC(C(C)(C)C)C/C(=C\c3cc(OC)c(OC)c(OC)c3)C2=O)cc(OC)c1OC (stereo unspecified) | 5.96 µM
NC(=S)NN=Cc1ccc(OC(=O)COc2cc(Cl)c(Cl)cc2Cl)cn1 | > 35.9 µM (inactive)
c1cnc2ccc(-n3ccnc3)cc2c1 | 9.58 µM
CC1CCN(C(=O)c2scc3c2OCCO3)CC1 | 16.4 µM (inactive)
CC1(C)Cc2c(ccc3ccccc23)C(=O)N1 | 8.4 µM
COC(=O)c1sc2cnccc2c1N | > 35.9 µM (inactive)
COC(=O)c1cccc2c1-c1ccccc1/C2=N/O | 4.87 µM
Cc1ccc(C)c(NC(=O)c2ccccc2NS(=O)(=O)c2cc([N+](=O)[O-])ccc2C)c1 | 3.98 µM
CCCCC(=O)Nc1cccn2ncnc12 | > 35.9 µM (inactive)
O=C(NC(NC(=S)N1CCOCC1)C(Cl)(Cl)Cl)c1ccc(Cl)cc1 (stereo unspecified) | 15.5 µM (inactive)
CCOc1ccc(/C=C2\SC(=S)N(CCC(=O)O)C2=O)cc1 | > 35.9 µM (inactive)
CCOc1ccc(-c2noc(CCC(=O)O)n2)cc1 | > 35.9 µM (inactive)
CNc1cccnc1C=NNC(N)=S | 18.4 µM (inactive)
C=C1C(=O)[C@@]23C[C@H]4[C@@H]5[C@@]6(C)CCC[C@@]57[C@@H]2[C@@H](O)[C@@H]1C[C@H]3[C@H]7N4C6 | 8.05 µM
CC1CC(C)C(=NNC(N)=O)C(C(O)CC2CCC(=O)NC2=O)C1 (stereo unspecified) | 12.2 µM (inactive)
COc1ccc(-c2cc(=O)oc3c(C)c(O)c(CN(C)C)cc23)cc1 | 15 µM (inactive)
CC(C)(C)c1cc(C(=O)N/N=C/c2ccc(O)cc2)n(-c2ccccc2)n1 | 21.9 µM (inactive)
Cc1cccn2c(=O)c3cc(C(=O)NCCN4CCOCC4)c(=N)n(Cc4cccnc4)c3nc12 | 13.5 µM (inactive)
COc1ccccc1N(C(=O)CCl)c1cn(C(C)=O)c2ccccc12 | 9.22 µM
COc1cc2c3c([nH]c2cc1F)C(=O)NCC3 | 24.8 µM (inactive)
O=C(Nc1cccnc1)c1ccc(C(=O)Nc2cccnc2)cc1 | > 35.9 µM (inactive)
CN(Cc1cnc2nc(N)nc(N)c2n1)c1ccc(C(=O)NC(CCC(=O)O)C(=O)O)c2ccccc12 (stereo unspecified) | > 35.9 µM (inactive)
COc1cc2c(cc1OC)C(C)N(C(=O)c1cccc([N+](=O)[O-])c1)CC2 (stereo unspecified) | 8.73 µM
NS(=O)(=O)c1ccc(Nc2nc(-c3cccnc3)cs2)cc1 | > 35.8 µM (inactive)
COc1cc2c(cc1OC)C(NC(=O)C(F)(F)F)CNC2=O (stereo unspecified) | 10.8 µM (inactive)
O=C(OC(c1ccccc1)c1nccc2ccccc12)c1ccccc1 (stereo unspecified) | 23.9 µM (inactive)

Compound | IC50
O=C(N/N=C(\c1ccccc1)c1ccccn1)c1ccccc1Cl | 10.8 µM (inactive)
COc1ccc2c(c1)-c1c(ssc1=S)C(C)(C)N2C(=O)CSC1=NCCS1 | 20.6 µM (inactive)
COc1cc([C@@H]2c3cc4c(cc3[C@@H](O[C@@H]3O[C@@H]5CO[C@@H](C)O[C@H]5[C@H](O)[C@H]3O)[C@H]3COC(=O)[C@H]23)OCO4)cc(OC)c1O | > 35.9 µM (inactive)
CN(c1ccc(C(=O)N2CCN(Cc3ccc4c(c3)OCO4)CC2)cc1)S(=O)(=O)c1ccccc1 | 13.5 µM (inactive)
O=C(N/N=C/c1ccccc1O)/C(=C/c1ccccc1)CCO | 7.52 µM
COc1ccc(/C=C2/SC(=S)N(CCC(=O)O)C2=O)cc1 | > 35.9 µM (inactive)
O=C(NC1CCCCC1)C(c1cccnc1)N(C(=O)CCl)c1cccc(Cl)c1 (stereo unspecified) | 4.71 µM
O=[N+]([O-])c1cccc2c1ccc1ncccc12 | 12.8 µM (inactive)
Nc1ccn([C@@H]2O[C@H](CO)[C@@H](O)C2O)c(=O)n1 (stereo partly specified) | 16.2 µM (inactive)
COc1ccc(Oc2nc3c(c(=O)n(C)c(=O)n3C)n2C)cc1 | 16.6 µM (inactive)
COc1cccc(/C=N/NC(=O)CNC(=O)C2COc3ccccc3O2)c1O (stereo unspecified) | 11.1 µM (inactive)
N#Cc1c2ccc(O)cc2n2ccccc12 | > 35.9 µM (inactive)
COc1ccc(CNc2ncc(-c3ccc(F)cc3)n2C)c2ccccc12 | > 35.9 µM (inactive)
c1ccc(-c2csc3ncnc(NCCN4CCOCC4)c23)cc1 | 18.7 µM (inactive)
Cc1nc2c(-c3ccc(Cl)cc3)c(C)[nH]n2c(=O)c1Cc1ccccc1 | 6.96 µM
Cc1c(/C(O)=C2/C(=O)C(=O)N(Cc3cccnc3)C2c2ccccn2)cnn1-c1ccccc1 (stereo unspecified) | > 35.9 µM (inactive)
O=C1CCC2S/C(=C/Nc3ccc(C(F)(F)F)cc3)C(=O)N12 (stereo unspecified) | > 35.9 µM (inactive)
C=CCc1ccccc1OCC(=O)N/N=C/c1ccc(OC(C)=O)cc1OC(C)=O | 22.8 µM (inactive)
Fc1ccc(CSc2nnc(-c3ccncc3)o2)cc1 | 7.85 µM
Fc1cccc(CSc2nnc3ccc(-c4ccncc4)nn23)c1 | > 35.8 µM (inactive)
Oc1ccc(C=NNc2ccccn2)c(O)c1 | > 35.9 µM (inactive)
O=C(CCC(=O)Nc1ccc(Br)cc1)N/N=C/c1ccccc1O | 4.9 µM
c1cc2c(cn1)cnc1cscc12 | 11.8 µM (inactive)
Nc1nc(CCl)nc(Nc2cccc3ccccc23)n1 | 11.1 µM (inactive)
Cc1cc(C)nc(SCc2ccc(C(=O)N/N=C/c3cccc(O)c3O)cc2)n1 | 5.29 µM
Cc1ccc(OCC(=O)c2cc(C)n(-c3ccccc3)c2C)c([N+](=O)[O-])n1 | 12.2 µM (inactive)

Compound | IC50
COc1ccc(C(O)(C(C)C)C(CN2CCOCC2)c2ccc(Cl)cc2)cc1 (stereo unspecified) | 20 µM (inactive)
Cc1cc(/C=C2\Cc3ccccc3C2=O)c(C)n1-c1ccccc1 | > 35.9 µM (inactive)
CC(=O)NC(c1cc(Cl)c2cccnc2c1O)C(C)C (stereo unspecified) | 8.06 µM
CCN(C(=O)c1cc(S(=O)(=O)N2CCCCC2)c[nH]1)c1ccc(OC)cc1 | 12.8 µM (inactive)
N#Cc1cc2ccncc2c2ccccc12 | 6.89 µM
CC(=O)NC(c1cc(Cl)c2cccnc2c1O)C1CC1 (stereo unspecified) | 9.3 µM
Cc1nn(CC(=O)N2CCN(c3cccc(C(F)(F)F)c3)CC2)c(=O)c2cccn12 | 17.6 µM (inactive)
CCN(C(=O)c1cccc(S(=O)(=O)N(C)C)c1)C12CC3CC(CC(C3)C1)C2 | 15.7 µM (inactive)
Cc1nc(N2CCC(C(N)=O)CC2)c2c(-c3cccs3)csc2n1 | 11.6 µM (inactive)
COC(CN(C(=O)CCl)C(C(=O)NC1CCCCC1)c1ccccc1C)OC (stereo unspecified) | 8.47 µM
Cc1cc(=O)[nH]c(Nc2cccc(Br)c2)n1 | 9.71 µM
Cc1c(C(=O)N/N=C/C(C)C)[nH]c2ccc([N+](=O)[O-])cc12 | 21.3 µM (inactive)
CC(NC(=O)COC(=O)c1cccs1)c1ccccc1 (stereo unspecified) | > 35.9 µM (inactive)
c1nc2sc3c(c2c2nnnn12)CCCC3 | 13.3 µM (inactive)
O=C(CSc1nc(-c2cccs2)cc(C(F)(F)F)n1)Nc1cc(OCC(F)(F)C(F)F)cc([N+](=O)[O-])c1 | 21.9 µM (inactive)
COc1cc(OC)c2cc(C(=O)N/N=C/c3cccc(OC)c3O)[nH]c2c1 | 9.42 µM
CCCCCCCC[n+]1c(C)n(-c2ccccc2)c2ccc(NC(C)=O)cc21 | 10.5 µM (inactive)
O=C(CCl)N1N=C(c2ccco2)CC1c1ccco1 (stereo unspecified) | > 12 µM (inactive)
CCN(CC(=O)Nc1ccc(NC(C)=O)cc1)C(=O)C1(c2ccc(Cl)cc2)CCC1 | > 35.9 µM (inactive)
CCCCC(=O)OCC(=O)C1(O)Cc2c(O)c3c(c(O)c2C(OC2CC(NC(=O)C(F)(F)F)C(O)C(C)O2)C1)C(=O)c1c(OC)cccc1C3=O (stereo unspecified) | 6.82 µM
COc1ccccc1CNC(=O)C(=O)NCCC1CCCCN1S(=O)(=O)c1ccc(C)cc1 (stereo unspecified) | 23.1 µM (inactive)
COc1cccc(/C=N/NC(=O)C(=O)Nc2ccccc2OC(F)(F)C(F)F)c1O | 10.7 µM (inactive)
C=CCn1c(Oc2ccccc2F)nc2c1c(=O)n(C)c(=O)n2C | 8.46 µM
CCOC(=O)CC(=O)CSc1nccc(-c2cccnc2)n1 | > 35.9 µM (inactive)
CN(C)C=Nc1c(C(=O)c2ccccc2)sc2nccc(N(C)C)c12 | > 35.9 µM (inactive)
CCCS(=O)(=O)c1c(S(=O)(=O)CCC)c2c(C)cccn2c1C(=O)N/N=C/c1cc(O)cc(O)c1 | 5 µM

Compound | IC50
CCn1ccnc1CN(C)Cc1cn[nH]c1-c1ccc(F)cc1F | 11 µM (inactive)
CCC(=O)Oc1c(C(=O)CC)cc2c(C)cc(=O)oc2c1C | 18.9 µM (inactive)
Cc1sc2ncnc(N3CCC(C(=O)Nc4cc(S(C)(=O)=O)ccc4Cl)CC3)c2c1C | 20.7 µM (inactive)
CN1CCN(c2cccc3c2C(=O)c2ccccc2C3=O)CC1 | 23.8 µM (inactive)
C=CCn1c(O)c(C(C)=NCc2cc(OC)cc(OC)c2)c(=O)[nH]c1=O | 7.94 µM
Cn1nc(C(F)(F)F)c(C#N)c1N1CCN(c2ccc(F)cc2)CC1 | 7.86 µM
O=[N+]([O-])c1ccc(N(CCO)CCO)c2c1no[n+]2[O-] | 7.87 µM
O=C(NC(=S)Nc1ccc(N2CCN(C(=O)c3ccccc3)CC2)cc1)c1cccs1 | 10.5 µM (inactive)
CCn1c(Oc2cccc(Br)c2)nc2c1c(=O)n(C)c(=O)n2C | 25.8 µM (inactive)
CN(Cc1cnc2nc(N)nc(N)c2n1)c1ccc(C(=O)N[C@@H](CCC(=O)O)C(=O)O)cc1 | > 35.9 µM (inactive)
CN(Cc1cnc2nc(N)nc(N)c2n1)c1ccc(C(=O)NC(CCC(=O)O)C(=O)O)cc1 (stereo unspecified) | > 35.9 µM (inactive)
Nc1ccc(Oc2ccccc2-c2ccccc2)cc1 | 19 µM (inactive)
O=C(Nc1cccc(C(F)(F)F)c1)Nc1nnc([C@@H]2C[C@H](O)[C@@H](CO)O2)s1 | 7.89 µM
CCC(=O)c1ccc(Oc2nc3c(c(=O)n(C)c(=O)n3C)n2CC)cc1 | 12.4 µM (inactive)
Cn1nc(C(F)(F)F)c(C#N)c1N1CCN(c2ccccc2)CC1 | 6.34 µM
O=C(Nc1c(-c2ccccc2)[nH][nH]c1=O)c1cccc(C(F)(F)F)c1 | > 35.8 µM (inactive)
COC(=O)N(NC(=O)C(O)(CCC(C)C)CCC(C)C)c1ccccc1 | > 35.9 µM (inactive)
O=C(c1ccncc1)N(Cc1cc2ccccc2[nH]c1=O)C1CCCCC1 | 7.87 µM
Cc1c2ccncc2cc2c1[nH]c1ccccc12 | 6.48 µM
COc1ccc2c(C#N)c3ccccn3c2c1 | > 35.8 µM (inactive)
CCCCC(CC)COCCCN=Cc1c(O)[nH]c(=S)[nH]c1=O (stereo unspecified) | 10.5 µM (inactive)
Cc1ccccc1C(=O)/C(C#N)=N/Nc1c(C)n(C)n(-c2ccccc2)c1=O | 5.6 µM
COc1ccccc1NS(=O)(=O)c1cccc(NC(=O)c2cncc(Br)c2)c1 | 12 µM (inactive)
